Test system: SEM cells
Assay: cell viability relative to DMSO control; higher = less cytotoxic
Conditions: 48 h
How it was run: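 In 1536-well plates, 5 μl of leukemia cells were seeded per well: 500 cells/well for NOMO1 or SEM and 1000 cells/well for P12-Ichikawa. Each line had first been adapted for at least four passages in each medium. Library compounds in DMSO were pin-dosed at 11 threefold concentrations between 47 μM and 0.79 nM, and CellTiter-Glo One luminescence was read after 48 h at 37°C. Viability is a per-plate percentage relative to DMSO wells, with cell-free wells as background.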

[1] = HPLM + 10% dialyzed FBS, 0.000781 µM
[2] = HPLM + 10% dialyzed FBS, 0.00234 µM
[3] = HPLM + 10% dialyzed FBS, 0.00702 µM
[4] = HPLM + 10% dialyzed FBS, 0.0211 µM
[5] = HPLM + 10% dialyzed FBS, 0.0632 µM
[6] = HPLM + 10% dialyzed FBS, 0.19 µM
[7] = HPLM + 10% dialyzed FBS, 0.569 µM
[8] = HPLM + 10% dialyzed FBS, 1.71 µM
[9] = HPLM + 10% dialyzed FBS, 5.12 µM
[10] = HPLM + 10% dialyzed FBS, 15.4 µM
[11] = HPLM + 10% dialyzed FBS, 46.1 µM
[12] = RPMI 5 mM glucose + 10% FBS, 0.000781 µM
[13] = RPMI 5 mM glucose + 10% FBS, 0.00234 µM
[14] = RPMI 5 mM glucose + 10% FBS, 0.00702 µM
[15] = RPMI 5 mM glucose + 10% FBS, 0.0211 µM
[16] = RPMI 5 mM glucose + 10% FBS, 0.0632 µM
[17] = RPMI 5 mM glucose + 10% FBS, 0.19 µM
[18] = RPMI 5 mM glucose + 10% FBS, 0.569 µM
[19] = RPMI 5 mM glucose + 10% FBS, 1.71 µM
[20] = RPMI 5 mM glucose + 10% FBS, 5.12 µM
[21] = RPMI 5 mM glucose + 10% FBS, 15.4 µM
[22] = RPMI 5 mM glucose + 10% FBS, 46.1 µM
[23] = RPMI 5 mM glucose + 10% dialyzed FBS, 0.000781 µM
[24] = RPMI 5 mM glucose + 10% dialyzed FBS, 0.00234 µM
[25] = RPMI 5 mM glucose + 10% dialyzed FBS, 0.00702 µM
[26] = RPMI 5 mM glucose + 10% dialyzed FBS, 0.0211 µM
[27] = RPMI 5 mM glucose + 10% dialyzed FBS, 0.0632 µM
[28] = RPMI 5 mM glucose + 10% dialyzed FBS, 0.19 µM
[29] = RPMI 5 mM glucose + 10% dialyzed FBS, 0.569 µM
[30] = RPMI 5 mM glucose + 10% dialyzed FBS, 1.71 µM
[31] = RPMI 5 mM glucose + 10% dialyzed FBS, 5.12 µM
[32] = RPMI 5 mM glucose + 10% dialyzed FBS, 15.4 µM
[33] = RPMI 5 mM glucose + 10% dialyzed FBS, 46.1 µM

Structure (SMILES)	cell viability [1]	cell viability [2]	cell viability [3]	cell viability [4]	cell viability [5]	cell viability [6]	cell viability [7]	cell viability [8]	cell viability [9]	cell viability [10]	cell viability [11]	cell viability [12]	cell viability [13]	cell viability [14]	cell viability [15]	cell viability [16]	cell viability [17]	cell viability [18]	cell viability [19]	cell viability [20]	cell viability [21]	cell viability [22]	cell viability [23]	cell viability [24]	cell viability [25]	cell viability [26]	cell viability [27]	cell viability [28]	cell viability [29]	cell viability [30]	cell viability [31]	cell viability [32]	cell viability [33]
CC[S+](=O)([O-])c1cccc(-c2cc(C(=O)NC3CCN(C)CC3)c(C)c3[nH]c4ncc(C)cc4c23)c1	109%	103%	130%	110%	124%	101%	52.3%	38.6%	30.2%	18.8%	8.97%	114%	120%	140%	120%	138%	83.2%	46.6%	27.7%	20.6%	12.9%	5.92%	99.2%	92.5%	135%	127%	118%	82.6%	46%	31.9%	23.8%	20.6%	6.33%
O=C(Nc1cccc(C(F)(F)F)c1)Nc1cc([S+](=O)([O-])NC2CC2)ccc1-c1ccsc1	101%	108%	117%	97.1%	110%	118%	109%	102%	113%	106%	61.9%												101%	107%	118%	105%	107%	111%	104%	83.4%	94.9%	101%	10.3%
CCN(CC)CCCCNc1ncc2cc(-c3cc(OC)cc(OC)c3)c(NC(=O)NC(C)(C)C)nc2n1	89.9%	104%	119%	114%	86.2%	98.6%	105%	84%	70.3%	46.2%	9.92%	118%	113%	107%	109%	100%	90.7%	92.1%	78.8%	87%	53.6%	17%	112%	105%	113%	106%	97.7%	108%	95.4%	81%	76.6%	44.9%	14.4%
O=C(O)CCC1CCC(c2cc(F)ccc2F)([S+](=O)([O-])c2ccc(Cl)cc2)CC1 (stereo not given)	105%	93.5%	110%	114%	115%	115%	109%	117%	119%	125%	116%	104%	110%	117%	126%	112%	114%	114%	104%	110%	113%	81.6%	103%	105%	115%	122%	122%	128%	109%	116%	123%	111%	106%
CC1CNc2c(cccc2[S+](=O)([O-])N[C@@H](CCCNC(=N)N)C(=O)N2CC[C@@H](C)C[C@@H]2C(=O)O)C1 (stereo not given in full)	88%	94.7%	102%	111%	98.2%	117%	117%	124%	106%	128%	95.6%	85.6%	90%	96.4%	108%	75.7%	103%	113%	97.1%	101%	107%	103%	70%	90.1%	101%	97%	99.1%	103%	107%	106%	110%	84.7%	108%
CC1(C)O[C@@H]2C[C@H]3[C@@H]4C[C@H](F)C5=CC(=O)C=C[C@]5(C)[C@@]4(F)[C@@H](O)C[C@]3(C)[C@]2(C(=O)CO)O1	97.9%	98.7%	91.3%	83.5%	58.3%	51.5%	41%	44.9%	43.8%	54.4%	45.4%	98.3%	120%	87.1%	82.6%	65.5%	63.2%	63.4%	49.5%	51.1%	56.1%	53.7%	116%	109%	98.4%	91.3%	59.6%	55.2%	39.1%	51.7%	47.8%	44.6%	49.2%
CNCCCC12CCC(c3ccccc31)c1ccccc12	96.5%	108%	105%	99.7%	116%	114%	110%	105%	93.5%	89.6%	59.5%	87.3%	97.3%	98.2%	99.4%	76.6%	104%	106%	100%	90.5%	85.2%	63.8%	113%	125%	105%	110%	111%	115%	128%	107%	106%	118%	75.5%
Cc1nc2cnc3ccc(C#Cc4cccnc4)cc3c2n1-c1ccc(C(C)(C)C#N)cc1	65.5%	72.3%	84.3%	86.5%	45.2%	43.3%	28.4%	34%	32.3%	33.2%	17%	87.7%	104%	104%	110%	56.2%	60.2%	47.8%	34.2%	31%	32.4%	16.2%	69.8%	82.4%	84.3%	78.4%	50.4%	48.9%	44.2%	37.2%	31.6%	32.7%	15.7%
CCN1CCN(c2ccc(Nc3cc(N(C)C(=O)Nc4c(Cl)c(OC)cc(OC)c4Cl)ncn3)cc2)CC1	95%	63.6%	102%	93.3%	102%	96.9%	84.2%	82.9%	35.5%	17%	5.71%	90.1%	104%	92.3%	102%	84.2%	90.4%	73.4%	60.9%	5.11%	4.6%	1.95%	103%	84%	110%	96%	118%	95.6%	92.8%	71.6%	8.12%	6.53%	2.21%
CC(C)(C)NC(=O)Nc1cccc(Nc2ncc(F)c(NC(C)(C)CO)n2)c1	101%	99.9%	103%	104%	109%	102%	99.8%	101%	77.1%	31.5%	29.9%	108%	103%	104%	108%	115%	120%	95.8%	102%	69.1%	16.4%	9.58%	107%	118%	110%	115%	115%	120%	111%	103%	71.8%	19.9%	16%
CCOC(=O)c1ccc(OC(=O)CCCCCNC(=N)N)cc1	111%	91.3%	117%	120%	123%	131%	132%	127%	120%	57.9%	39.8%	116%	108%	134%	109%	130%	140%	141%	105%	45.9%	31.8%	27.2%	99.1%	86.9%	142%	132%	109%	117%	123%	125%	95.7%	37.8%	26.4%
C[C@]12CCC(=O)C=C1CC[C@@H]1[C@@H]2[C@@H](O)C[C@@]2(C)[C@H]1CC[C@]2(O)C(=O)CO	108%	96.8%	98.1%	118%	104%	107%	121%	121%	108%	87.6%	99.2%	89.7%	82.7%	99.3%	91.4%	92.1%	102%	94.9%	97%	86.1%	68.2%	73.4%	99.2%	95%	114%	102%	102%	112%	96.7%	94.2%	92.5%	70%	62.7%
COC(=O)Nc1cc(Nc2cc(NC3CC3)c3ncc(C#N)n3n2)c(Cl)c(N2CCN(C)CC2)c1	97.9%	103%	98.7%	98.5%	98%	102%	86.5%	77.7%	37.9%	5.22%	4.93%												113%	122%	110%	109%	103%	95%	84.4%	61.9%	29.9%	5.89%	5.24%
CCN1CCN(CC1)CC(=O)NC2=CC=C(C3=C2C4=C(S3)C=CC=C4)C5=C6O\C(=C/C(=O)C6=CC=C5)N7CCOCC7	107%	98.2%	109%	106%	111%	93.4%	88.4%	30%	18%	8.23%	30.3%	117%	108%	107%	95.2%	124%	91.7%	82.3%	55.6%	14.4%	8.04%	27.8%	137%	122%	123%	116%	105%	110%	88.6%	71.3%	24%	9.66%	27.2%
CN(C)[S+](=O)([O-])c1ccc2c(c1)C(=Cc1cc3c([nH]1)CCCC3)C(=O)N2	112%	115%	112%	114%	128%	129%	130%	116%	114%	85.7%	111%	90.5%	98.6%	109%	103%	118%	113%	118%	113%	112%	78.5%	94.7%	116%	115%	127%	120%	120%	108%	132%	123%	113%	72.9%	116%
Nc1ncnc2c1ncn2[C@@H]1O[C@@H](CO)[C@H](O)[C@@H]1O	93.8%	90.1%	111%	119%	124%	117%	109%	109%	115%	118%	62.4%												106%	105%	116%	112%	130%	144%	121%	123%	123%	84.9%	50.2%
